Measured values: PubChem BioAssay (NCI)
Values joined by “and” are separate entries in the source; they are usually repeats but may differ in a detail not shown here. Equal entries are not always repeated.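 Tested at 5 concentrations; 48 h exposure; 96-well plates; endpoints linearly interpolated, else capped at highest concentration. At the GI50, growth is halved. The concentration for full growth arrest is given as TGI.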

test system: HCC-2998 colon; test: NCI anticancer screen, dose series, 48 h

| Structure (SMILES) | GI50 | TGI |
| --- | --- | --- |
| O=C(Nc1cc(Nc2ncccc2-c2ncnc3nc[nH]c23)ccc1F)c1cc(C(F)(F)F)cc(C(F)(F)F)c1 | 1.24 µM | 2.74 µM |
| COc1cc(/C=C2\[C@H]3c4c(c(OC)c(C)c(OC)c4OC)CC(C(=O)N2Cc2ccccc2)N3C)c(OC)c(C)c1OC | – | 62.8 µM |
| CN(C)C(=S)SSC(=S)N(C)C | 38.3 µM | > 100 µM and 38 µM |
| CCCCCCCCCCNC(=O)CI | 3.53 µM | 11.5 µM |
| CCCC/C(=C\C1=C(C)C(=O)C(OC)=C(OC)C1=O)C(=O)O | > 100 µM | > 100 µM |
| CCc1ccc2c(c1)C(=O)c1c-2n(CCCN=[N+]=[N-])c(=O)c2cc([N+](=O)[O-])ccc12 | > 50 µM | > 50 µM |
| Cc1cc(N/N=C/c2ccccn2)nc2ccccc12 | 0.462 µM | 16.1 µM |
| COc1ccc(C(CC(=O)c2ccc3c(c2)OCO3)c2c(O)c3ccccc3oc2=O)cc1OC (stereo not drawn) | – | > 100 µM |
| O=C(N/C(=C\c1ccc([N+](=O)[O-])cc1)c1nc2ccccc2[nH]1)c1ccccc1 | – | > 100 µM |
| COC(=O)/C([Se]c1c(C)cc(C)cc1C)=C(/[Se]c1c(C)cc(C)cc1C)C(=O)OC | – | > 100 µM |
| Nc1cc(Br)c(-c2nnc(CCC(=O)c3nc4ccccc4[nH]3)o2)c(Br)c1 | 11 µM | 42.5 µM |
| Cc1cc2c(c(C(N)=O)c1C)-c1ccccc1C2=O | – | > 100 µM |
| COC(=O)/C(=N/O)C(C(=O)C=C(C)C)C(=O)C(=O)Nc1nc2ccc([N+](=O)[O-])cc2s1 (stereo not drawn) | – | > 100 µM |
| CCOC(=O)NC(=O)c1cn(C2CCCCC2)c(=O)[nH]c1=O | – | > 100 µM |
| COc1ccc(/C(C)=C(\c2ccc(OCCN3CCCCCC3)cc2)c2ccc(OC(=O)C3CCCCC3)cc2)cc1 | 1.24 µM | 3.36 µM |

test system: UACC-62 melanoma; test: NCI anticancer screen, dose series, 48 h

| Structure (SMILES) | GI50 | TGI |
| --- | --- | --- |
| O=C(Nc1cc(Nc2ncccc2-c2ncnc3nc[nH]c23)ccc1F)c1cc(C(F)(F)F)cc(C(F)(F)F)c1 | 0.38 µM | 2.32 µM |
| COc1cc(/C=C2\[C@H]3c4c(c(OC)c(C)c(OC)c4OC)CC(C(=O)N2Cc2ccccc2)N3C)c(OC)c(C)c1OC | – | 30.4 µM |
| CN(C)C(=S)SSC(=S)N(C)C | 15.8 µM | 32.8 µM and > 41.6 µM and 28.2 µM |
| CCCCCCCCCCNC(=O)CI | 1.69 µM | 3.28 µM |
| CCCC/C(=C\C1=C(C)C(=O)C(OC)=C(OC)C1=O)C(=O)O | > 100 µM | > 100 µM |
| CCc1ccc2c(c1)C(=O)c1c-2n(CCCN=[N+]=[N-])c(=O)c2cc([N+](=O)[O-])ccc12 | > 50 µM | > 50 µM |
| Cc1cc(N/N=C/c2ccccn2)nc2ccccc12 | 0.406 µM | 3.36 µM |
| COc1ccc(C(CC(=O)c2ccc3c(c2)OCO3)c2c(O)c3ccccc3oc2=O)cc1OC (stereo not drawn) | – | > 100 µM |
| O=C(N/C(=C\c1ccc([N+](=O)[O-])cc1)c1nc2ccccc2[nH]1)c1ccccc1 | – | > 100 µM |
| COC(=O)/C([Se]c1c(C)cc(C)cc1C)=C(/[Se]c1c(C)cc(C)cc1C)C(=O)OC | – | > 100 µM |
| Nc1cc(Br)c(-c2nnc(CCC(=O)c3nc4ccccc4[nH]3)o2)c(Br)c1 | 5.37 µM | > 100 µM |
| Cc1cc2c(c(C(N)=O)c1C)-c1ccccc1C2=O | – | > 100 µM |
| COC(=O)/C(=N/O)C(C(=O)C=C(C)C)C(=O)C(=O)Nc1nc2ccc([N+](=O)[O-])cc2s1 (stereo not drawn) | – | > 100 µM |
| CCOC(=O)NC(=O)c1cn(C2CCCCC2)c(=O)[nH]c1=O | – | > 100 µM |
| COc1ccc(/C(C)=C(\c2ccc(OCCN3CCCCCC3)cc2)c2ccc(OC(=O)C3CCCCC3)cc2)cc1 | 0.892 µM | 2.85 µM |

test system: SF-295 CNS; test: NCI anticancer screen, dose series, 48 h

| Structure (SMILES) | GI50 | TGI |
| --- | --- | --- |
| O=C(Nc1cc(Nc2ncccc2-c2ncnc3nc[nH]c23)ccc1F)c1cc(C(F)(F)F)cc(C(F)(F)F)c1 | 1.73 µM | 4.01 µM |
| COc1cc(/C=C2\[C@H]3c4c(c(OC)c(C)c(OC)c4OC)CC(C(=O)N2Cc2ccccc2)N3C)c(OC)c(C)c1OC | – | 41.5 µM |
| CN(C)C(=S)SSC(=S)N(C)C | – | 81.9 µM and > 100 µM and 57.1 µM |
| CCCCCCCCCCNC(=O)CI | 4.58 µM | 13.2 µM |
| CCCC/C(=C\C1=C(C)C(=O)C(OC)=C(OC)C1=O)C(=O)O | > 100 µM | > 100 µM |
| CCc1ccc2c(c1)C(=O)c1c-2n(CCCN=[N+]=[N-])c(=O)c2cc([N+](=O)[O-])ccc12 | > 50 µM | > 50 µM |
| Cc1cc(N/N=C/c2ccccn2)nc2ccccc12 | 0.307 µM | 3.2 µM |
| COc1ccc(C(CC(=O)c2ccc3c(c2)OCO3)c2c(O)c3ccccc3oc2=O)cc1OC (stereo not drawn) | – | > 100 µM |
| O=C(N/C(=C\c1ccc([N+](=O)[O-])cc1)c1nc2ccccc2[nH]1)c1ccccc1 | – | > 100 µM |
| COC(=O)/C([Se]c1c(C)cc(C)cc1C)=C(/[Se]c1c(C)cc(C)cc1C)C(=O)OC | – | > 100 µM |
| Nc1cc(Br)c(-c2nnc(CCC(=O)c3nc4ccccc4[nH]3)o2)c(Br)c1 | 9.78 µM | 35.6 µM |
| Cc1cc2c(c(C(N)=O)c1C)-c1ccccc1C2=O | – | > 100 µM |
| COC(=O)/C(=N/O)C(C(=O)C=C(C)C)C(=O)C(=O)Nc1nc2ccc([N+](=O)[O-])cc2s1 (stereo not drawn) | – | > 100 µM |
| CCOC(=O)NC(=O)c1cn(C2CCCCC2)c(=O)[nH]c1=O | – | > 100 µM |
| COc1ccc(/C(C)=C(\c2ccc(OCCN3CCCCCC3)cc2)c2ccc(OC(=O)C3CCCCC3)cc2)cc1 | 0.484 µM | 1.8 µM |

test system: IGROV1 ovarian; test: NCI anticancer screen, dose series, 48 h

| Structure (SMILES) | GI50 | TGI |
| --- | --- | --- |
| O=C(Nc1cc(Nc2ncccc2-c2ncnc3nc[nH]c23)ccc1F)c1cc(C(F)(F)F)cc(C(F)(F)F)c1 | 1.63 µM | 7.2 µM |
| COc1cc(/C=C2\[C@H]3c4c(c(OC)c(C)c(OC)c4OC)CC(C(=O)N2Cc2ccccc2)N3C)c(OC)c(C)c1OC | – | 51.6 µM |
| CN(C)C(=S)SSC(=S)N(C)C | > 89.9 µM | > 100 µM and 29.3 µM |
| CCCCCCCCCCNC(=O)CI | 0.12 µM | 0.288 µM |
| CCCC/C(=C\C1=C(C)C(=O)C(OC)=C(OC)C1=O)C(=O)O | > 100 µM | > 100 µM |
| CCc1ccc2c(c1)C(=O)c1c-2n(CCCN=[N+]=[N-])c(=O)c2cc([N+](=O)[O-])ccc12 | > 50 µM | > 50 µM |
| Cc1cc(N/N=C/c2ccccn2)nc2ccccc12 | 0.356 µM | 3.95 µM |
| COc1ccc(C(CC(=O)c2ccc3c(c2)OCO3)c2c(O)c3ccccc3oc2=O)cc1OC (stereo not drawn) | – | > 100 µM |
| O=C(N/C(=C\c1ccc([N+](=O)[O-])cc1)c1nc2ccccc2[nH]1)c1ccccc1 | – | > 100 µM |
| COC(=O)/C([Se]c1c(C)cc(C)cc1C)=C(/[Se]c1c(C)cc(C)cc1C)C(=O)OC | – | > 100 µM |
| Nc1cc(Br)c(-c2nnc(CCC(=O)c3nc4ccccc4[nH]3)o2)c(Br)c1 | 5.87 µM | 62.7 µM |
| Cc1cc2c(c(C(N)=O)c1C)-c1ccccc1C2=O | – | > 100 µM |
| COC(=O)/C(=N/O)C(C(=O)C=C(C)C)C(=O)C(=O)Nc1nc2ccc([N+](=O)[O-])cc2s1 (stereo not drawn) | – | > 100 µM |
| CCOC(=O)NC(=O)c1cn(C2CCCCC2)c(=O)[nH]c1=O | – | > 100 µM |
| COc1ccc(/C(C)=C(\c2ccc(OCCN3CCCCCC3)cc2)c2ccc(OC(=O)C3CCCCC3)cc2)cc1 | 1.21 µM | 3.88 µM |

test system: OVCAR-4 ovarian; test: NCI anticancer screen, dose series, 48 h

| Structure (SMILES) | GI50 | TGI |
| --- | --- | --- |
| O=C(Nc1cc(Nc2ncccc2-c2ncnc3nc[nH]c23)ccc1F)c1cc(C(F)(F)F)cc(C(F)(F)F)c1 | 1.57 µM | 4.34 µM |
| COc1cc(/C=C2\[C@H]3c4c(c(OC)c(C)c(OC)c4OC)CC(C(=O)N2Cc2ccccc2)N3C)c(OC)c(C)c1OC | – | > 100 µM |
| CN(C)C(=S)SSC(=S)N(C)C | – | 20.8 µM and 8.96 µM and 39.1 µM |
| CCCCCCCCCCNC(=O)CI | 1.87 µM | 5.42 µM |
| CCCC/C(=C\C1=C(C)C(=O)C(OC)=C(OC)C1=O)C(=O)O | 31.6 µM | > 100 µM |
| CCc1ccc2c(c1)C(=O)c1c-2n(CCCN=[N+]=[N-])c(=O)c2cc([N+](=O)[O-])ccc12 | 49.6 µM | > 50 µM |
| Cc1cc(N/N=C/c2ccccn2)nc2ccccc12 | 0.166 µM | 7.2 µM |
| COc1ccc(C(CC(=O)c2ccc3c(c2)OCO3)c2c(O)c3ccccc3oc2=O)cc1OC (stereo not drawn) | – | > 100 µM |
| O=C(N/C(=C\c1ccc([N+](=O)[O-])cc1)c1nc2ccccc2[nH]1)c1ccccc1 | – | > 100 µM |
| COC(=O)/C([Se]c1c(C)cc(C)cc1C)=C(/[Se]c1c(C)cc(C)cc1C)C(=O)OC | – | > 100 µM |
| Nc1cc(Br)c(-c2nnc(CCC(=O)c3nc4ccccc4[nH]3)o2)c(Br)c1 | 5.49 µM | 78.3 µM |
| Cc1cc2c(c(C(N)=O)c1C)-c1ccccc1C2=O | – | > 100 µM |
| COC(=O)/C(=N/O)C(C(=O)C=C(C)C)C(=O)C(=O)Nc1nc2ccc([N+](=O)[O-])cc2s1 (stereo not drawn) | – | > 100 µM |
| CCOC(=O)NC(=O)c1cn(C2CCCCC2)c(=O)[nH]c1=O | – | > 100 µM |
| COc1ccc(/C(C)=C(\c2ccc(OCCN3CCCCCC3)cc2)c2ccc(OC(=O)C3CCCCC3)cc2)cc1 | 0.785 µM | 3.35 µM |
